Source: patent US20100331315A1, “RHODANINES AND RELATED HETEROCYCLES AS KINASE INHIBITORS” (priority 2009, published 2010)
Where two headings read alike, the source gives them in different places.

Tests used:
recombinant PIM-1 = recombinant PIM-1 (Homo sapiens, UniProt P11309); assay: PIM-1 assay (33P-ATP filter plate); format: biochemical; conditions: read-out: PIM1: IC50
Description: The following procedure was used to assay the PIM-1 kinase activity of compounds of the invention. Other methods for assaying PIM-1 and other PIM kinases, as well as methods to assay for activity against the various kinases are known in the art.
In a final reaction volume of 50 ul, recombinant PIM-1 (1 ng) was incubated with 12 mM MOPS pH 7.0, 0.4 mM EDTA, glycerol 1%, brij 35 0.002%, 2-mercaptoethanol 0.02%, BSA 0.2 mg/ml, 100 uM KKRNRTLTK, 10 mM MgAcetate, 15 uM ATP, [γ-^33P-ATP] (specific activity approx. 500 cpm/pmol), DMSO 4% and test inhibitor compound at the required concentration. The reaction was initiated by the addition of the Magnesium ATP mixture. After 40 min incubation at 23° C., the reactions were quenched by the addition of 100 ul 0.75% Phosphoric acid, and the labeled peptide collected by filtration through a phosphocellulose filter plate. The plate was washed 4 times with 0.075% phosphoric acid (100 ul per well) and then, after the addition of scintillation fluid (20 ul per well), the counts were measured by a scintillation counter.

recombinant human CK2 = target: T1, recombinant human CK2 (Homo sapiens, UniProt P68400); assay: CK2 assay (cell-free, 33P-ATP filter plate); format: biochemical
T1 construct: purchased Upstate
T1 sequence (P68400 whole entry): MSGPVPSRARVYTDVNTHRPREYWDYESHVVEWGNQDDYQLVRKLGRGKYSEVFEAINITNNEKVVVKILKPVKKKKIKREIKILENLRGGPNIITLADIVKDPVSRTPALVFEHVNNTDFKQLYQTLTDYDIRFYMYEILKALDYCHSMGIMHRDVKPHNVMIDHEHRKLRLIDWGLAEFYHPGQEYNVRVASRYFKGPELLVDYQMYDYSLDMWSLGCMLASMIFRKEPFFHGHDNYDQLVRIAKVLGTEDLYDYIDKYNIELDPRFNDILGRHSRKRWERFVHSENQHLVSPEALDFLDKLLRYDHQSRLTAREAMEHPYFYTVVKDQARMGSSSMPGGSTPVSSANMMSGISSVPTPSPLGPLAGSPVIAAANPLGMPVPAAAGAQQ
T1 sequence (P67870 whole entry partner): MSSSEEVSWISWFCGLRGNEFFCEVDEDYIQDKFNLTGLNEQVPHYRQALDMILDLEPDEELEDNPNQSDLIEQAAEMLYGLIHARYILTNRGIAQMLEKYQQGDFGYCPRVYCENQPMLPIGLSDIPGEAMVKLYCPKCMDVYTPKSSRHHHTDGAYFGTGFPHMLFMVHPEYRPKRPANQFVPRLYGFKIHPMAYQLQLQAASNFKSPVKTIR
Description: Modulatory activity of compounds described herein was assessed in vitro in cell-free CK2 assays by the following method.
Test compounds in aqueous solution were added at a volume of 10 microliters, to a reaction mixture comprising 10 microliters Assay Dilution Buffer (ADB; 20 mM MOPS, pH 7.2, 25 mM beta-glycerolphosphate, 5 mM EGTA, 1 mM sodium orthovanadate and 1 mM dithiothreitol), 10 microliters of substrate peptide (RRRDDDSDDD, dissolved in ADB at a concentration of 1 mM), 10 microliters of recombinant human CK2 (25 ng dissolved in ADB; Upstate). Reactions were initiated by the addition of 10 microliters of ATP Solution (90% 75 mM MgCl2, 75 micromolar ATP dissolved in ADB; 10% [γ-^33P]ATP (stock 1 mCi/100 μl; 3000 Ci/mmol (Perkin Elmer) and maintained for 10 minutes at 30 degrees C. The reactions were quenched with 100 microliters of 0.75% phosphoric acid, then transferred to and filtered through a phosphocellulose filter plate (Millipore). After washing each well 5 times with 0.75% phosphoric acid, the plate was dried under vacuum for 5 min and, following the addition of 15 ul of scintillation fluid to each well, the residual radioactivity was measured using a Wallac luminescence counter.

MDAMB231 = assay: Alamar Blue cell proliferation assay, MDAMB231; format: cell-based; conditions: Homo sapiens
Description: (§1) A representative cell-proliferation assay protocol using Alamar Blue dye (stored at 4° C., use 20 ul per well) is described hereafter.
(§2) a. Split and trypsinize cells.
(§3) b. Count cells using hemocytometer.
(§4) c. Plate 4,000-5,000 cells per well in 100 μl of medium and seed into a 96-well plate according to the following plate layout. Add cell culture medium only to wells B10 to B12. Wells B1 to B9 have cells but no compound added.
(§5) d. Add 100 μl of 2× drug dilution to each well in a concentration shown in the plate layout above. At the same time, add 100 μl of media into the control wells (wells B10 to B12). Total volume is 200 μl/well.
(§6) e. Incubate four (4) days at 37° C., 5% CO2 in a humidified incubator.
(§7) f. Add 20 μl Alamar Blue reagent to each well.
(§8) g. Incubate for four (4) hours at 37° C., 5% CO2 in a humidified incubator.
(§9) h. Record fluorescence at an excitation wavelength of 544 nm and emission wavelength of 590 nm using a microplate reader.
(§10) In the assays, cells are cultured with a test compound for approximately four days, the dye is then added to the cells and fluorescence of […] dye is detected after approximately four hours. Different types of cells can be utilized in the assays (e.g., HCT-116 human colorectal carcinoma cells, PC-3 human prostatic cancer cells and MiaPaca human pancreatic carcinoma cells).

[1] = test system: MiaPaca human pancreatic carcinoma cells; assay: Alamar Blue cell proliferation assay, MiaPaCa; format: cell-based
Description: as §1, §2, §3, §4, §5, §6, §7, §8, §9, §10

K-562 = assay: Alamar Blue cell proliferation assay, K-562; format: cell-based; conditions: Homo sapiens
Description: as §1, §2, §3, §4, §5, §6, §7, §8, §9, §10

MV-4-11 = assay: Alamar Blue cell proliferation assay, MV-4-11; format: cell-based; conditions: Homo sapiens
Description: as §1, §2, §3, §4, §5, §6, §7, §8, §9, §10

[2] = test system: PC-3 human prostatic cancer cells; assay: Alamar Blue cell proliferation assay, PC3; format: cell-based
Description: as §1, §2, §3, §4, §5, §6, §7, §8, §9, §10

[3] = MDA-MB-231, MDAMB231, Table 1, read-out: AB: MDAMB231 IC50
[4] = MIA PaCa-2, Table 1, read-out: AB: MiaPaCa IC50
[5] = K562, K-562, Table 1, read-out: AB: K-562 IC50
[6] = MV4-11, MV-4-11, Table 1, read-out: AB: MV-4-11 IC50
[7] = PC-3, PC3, Table 1, read-out: AB: PC3
[8] = PC3, Table 4, read-out: AB: PC3 IC50
[9] = K562, K-562, Table 4, read-out: AB: K-562 IC50

Chain of recombinant PIM-1 (P11309 whole entry): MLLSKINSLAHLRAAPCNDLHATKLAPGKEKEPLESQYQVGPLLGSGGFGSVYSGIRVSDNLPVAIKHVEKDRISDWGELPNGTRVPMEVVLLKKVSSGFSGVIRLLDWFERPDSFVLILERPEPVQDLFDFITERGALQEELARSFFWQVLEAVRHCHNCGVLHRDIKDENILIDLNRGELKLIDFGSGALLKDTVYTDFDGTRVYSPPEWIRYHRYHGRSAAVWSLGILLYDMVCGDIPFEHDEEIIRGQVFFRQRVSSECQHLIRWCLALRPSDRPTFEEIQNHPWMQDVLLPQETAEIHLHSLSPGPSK

SMILES | IC50 (recombinant PIM-1; Table 1) [nM] | IC50 (MDAMB231; [3]) [µM] | IC50 [1, 4] [µM] | IC50 (K-562; [5]) [µM] | IC50 (recombinant human CK2; Table 1) [nM] | IC50 (MV-4-11; [6]) [nM] | other results
CN1C(=O)NC(=O)/C1=C\c1ccc(-c2ccc(C(=O)O)cc2)o1 |  |  |  |  |  |  | IC50 (recombinant PIM-1; Table 3): 829 nM; IC50 (recombinant human CK2; Table 3): 216 nM
COC(=O)c1cccc(-c2ccc(CC3SC(=S)NC3=O)o2)c1 (stereo not drawn) | 6 | > 10 | > 10 | > 10 | 3 | > 10000 | 
CN1CCCN(C(=O)c2ccccc2-c2ccc(/C=C3\SC(=S)NC3=O)o2)CC1 | 1300 |  |  |  | > 5000 |  | 
O=C1NC(=S)S/C1=C\c1ccc(-c2cccc(C(=O)NN3CCN(CCO)CC3)c2)o1 | 162 | > 10 | > 10 | > 10 | 288 | > 10000 | IC50 [2, 7]: > 30 µM
CN1C(=O)NC(=O)/C1=C\c1ccc(-c2cccc(C(=O)O)c2)o1 |  |  |  |  |  |  | IC50 (recombinant PIM-1; Table 3): > 5000 nM; IC50 (recombinant human CK2; Table 3): 1460 nM
CN1CCCN(c2cncc(-c3cccc(/C=C4\SC(=S)NC4=O)c3)n2)CC1 |  |  |  |  |  |  | IC50 (recombinant PIM-1; Table 4): < 1 nM; IC50 [2, 8]: 3.46 µM; IC50 (K-562; [9]): < 0.03 µM; IC50 (recombinant human CK2; Table 4): 1 nM
NCCN1CCN(C(=O)c2ccc(-c3ccc(/C=C4\SC(=S)NC4=O)o3)cc2)CC1 | 19 | > 10 | > 10 | > 10 | 196 | > 1000 | IC50 [2, 7]: > 30 µM
O=C1NC(=S)S/C1=C\c1ccc(-c2ccccc2C(=O)O)o1 | 4330 |  |  |  | 3790 |  | 
CN1CCCN(C(=O)c2ccc(-c3ccc(/C=C4/SC(=O)NC4=O)o3)cc2)CC1 |  |  |  |  |  |  | IC50 (recombinant PIM-1; Table 2): 266 nM; IC50 (MDAMB231; MDA-MB-231, MDAMB231, Table 2, read-out: AB: MDAMB231 IC50): > 10 µM; IC50 ([2]; PC3, Table 2, read-out: AB: PC3 IC50): > 30 µM; IC50 ([1]; MIA PaCa-2, Table 2, read-out: AB: MiaPaCa IC50): > 10 µM; IC50 (K-562; K562, K-562, Table 2, read-out: AB: K-562 IC50): > 10 µM; IC50 (recombinant human CK2; Table 2): 430 nM; IC50 (MV-4-11; MV4-11, MV-4-11, Table 2, read-out: AB: MV-4-11 IC50): > 1000 nM
O=C1NC(=S)S/C1=C\c1ccc(-c2cccc(C(=O)NNc3ccnc4cc(Cl)ccc34)c2)o1 | 146 | > 10 | > 10 | > 10 | 266 | > 10000 | IC50 [2, 7]: > 30 µM
CCN1CCCC1CNC(=O)c1ccc(-c2ccc(/C=C3\SC(=S)NC3=O)o2)cc1 (stereo not drawn) | 28 | > 10 | 3.95 | > 10 |  | 210 | IC50 [2, 7]: > 30 µM
O=C1NC(=O)/C(=C\c2ccc(-c3ccc(C(=O)O)cc3)o2)N1 |  |  |  |  |  |  | IC50 (recombinant PIM-1; Table 3): 805 nM; IC50 (recombinant human CK2; Table 3): 166 nM
O=C1NC(=S)S/C1=C\c1ccc(-c2cccc(C(=O)N3CCC[C@H]3CO)c2)o1 | 12 | > 10 | > 10 | > 10 | 37 | 175 | IC50 [2, 7]: > 30 µM
CN1CCCN(c2cncc(-c3ccc(/C=C4\SC(=S)NC4=O)o3)n2)CC1 |  |  |  |  |  |  | IC50 (recombinant PIM-1; Table 4): 141 nM; IC50 [2, 8]: > 10 µM; IC50 (recombinant human CK2; Table 4): 18 nM
O=C1NC(=O)/C(=C/c2ccc(-c3cccc(C(=O)O)c3)o2)S1 |  |  |  |  |  |  | IC50 (recombinant PIM-1; Table 2): > 5000 nM; IC50 (recombinant human CK2; Table 2): 117 nM
CN1CCCN(c2cncc(-c3ccc(/C=C4\NC(=O)NC4=O)o3)n2)CC1 |  |  |  |  |  |  | IC50 (recombinant PIM-1; Table 4): 1850 nM; IC50 (recombinant human CK2; Table 4): 229 nM
CN1CCCN(c2cncc(-c3cccc(/C=C4\SC(=O)NC4=O)c3)n2)CC1 |  |  |  |  |  |  | IC50 (recombinant PIM-1; Table 4): 1 nM; IC50 [2, 8]: 9.49 µM; IC50 (K-562; [9]): 0.076 µM; IC50 (recombinant human CK2; Table 4): 3 nM
